Common to all, as to type: in vivo
In one test the test system is muscle tone. Nature of the test: Muscle tone in mammals (general statement). The settings on record: in words.
The test system of another test is mice. The test is described as follows: Maximal Electroschock Test (MES) in mice. The following applies: Mus musculus, ip. The text has this: (§1) 1. Maximal Electroschock Test (MES) in mice, a method described by Woodbury and Davenport, Arch int. Pharmacodyn. Ther. 92, P. 97-107 (1952).
(§2) In the MES pharmacological test referred to hereinbefore, the stated compounds had the given ED50 when administered i.p. to mice or rats as appropriate.

Test [1] deals with monosynaptic kneed-jerk reflex. Nature of the test: Muscle Relaxant Activity: monosynaptic knee-jerk reflex in the cat. The following applies: oral dose of from 100-150 mg/kg. The protocol:
(§3) The effect of trans 3-fluoro-N-cyclopropylcinnamamide as a centrally acting muscle relaxant was determined using a method based on that described in Berger, F. M. & Bradley, W. (Br. J. Pharmac. Chemother, (1946), 1, 265-272) and Crankshaw, D. P. & Raper, C. (Br. J. Pharmac. (1970), 38, 148-156).

In test [2] the test system is polysynaptic reflex contractions. Nature of the test: Muscle Relaxant Activity: polysynaptic reflex contractions in the cat. The following applies: oral dose of from 100-150 mg/kg. As to the method:
as §3

The test system of another test is rat. The test is described as follows: Maximal Electroschock Test (MES), rat. The following applies: ip.
From the text: as §1, §2

Take `O=C(/C=C/c1cccc(F)c1)NC1CC1` [formula (IA), 3-fluoro-N-cyclopropylcinnamamide]: the muscle tone entry with muscle tone is listed as “decreases muscle tone in mammals”.

As a reminder, the ED50 is the dose at which the effect has come halfway, by size or by number of responders. As for `O=C(/C=C/c1cccc(Br)c1)NC1CC1` [trans 3-bromo-N-cyclopropylcinnamamide, Trans 3-Bromo-N-cyclopropylcinnamamide], it took a dose of 77 mg/kg to reach the 50% effect level with mice (ED50). In the test with mice, `O=C(/C=C/c1cccc(F)c1)NC1CC1` [trans 3-fluoro-N-cyclopropylcinnamamide, Trans 3-Fluoro-N-cyclopropylcinnamamide] displayed an ED50 of 60 mg/kg. The monosynaptic kneed-jerk reflex entry in test [1] is reported as “without affecting the monosynaptic kneed-jerk reflex”. Besides, the polysynaptic reflex contractions entry in test [2] is on record as “suppressed polysynaptic reflex contractions”. Take `O=C(/C=C/c1cccc(C(F)(F)F)c1)NC1CC1` [Trans 3-Trifluoromethyl-N-Cyclopropylcinnamamide]: the 50% effect level in the test with rat (ED50) was put at a dose of 56 mg/kg.
